Assay results reported in patent publication US8742110B2, “Spiroxazolidinone compounds” (Merck Sharp & Dohme Corp., priority 2010, dated 2014).
pIC50: −log10 of the molar value. Counter-ions that a name gives are not always drawn.

What follows are molecules tested against SSTR5 (Homo sapiens (Human), UniProt P35346) (assay: SSTR5 binding assay). Settings: CHO-K1 membranes expressing cloned human SSTR5.
In short: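 Competition binding on membranes from CHO-K1 cells stably expressing cloned human receptor, using radiolabeled somatostatin in 50 mM Tris-HCl pH 7.8 with EGTA, MgCl2 and protease inhibitors. Unlabeled compounds tested from 0.01 nM to 10,000 nM.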

Sequence of SSTR5 (P35346 whole entry): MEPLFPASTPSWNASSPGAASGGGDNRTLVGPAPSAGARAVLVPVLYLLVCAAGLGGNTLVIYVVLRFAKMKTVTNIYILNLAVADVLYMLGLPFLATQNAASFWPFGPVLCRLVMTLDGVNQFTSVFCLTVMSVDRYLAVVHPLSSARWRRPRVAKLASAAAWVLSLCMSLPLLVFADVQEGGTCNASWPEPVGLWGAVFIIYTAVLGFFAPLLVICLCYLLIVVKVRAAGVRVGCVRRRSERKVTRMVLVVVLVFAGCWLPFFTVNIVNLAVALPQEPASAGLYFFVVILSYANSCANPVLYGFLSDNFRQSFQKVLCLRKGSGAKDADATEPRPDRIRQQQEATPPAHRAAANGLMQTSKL

Question: With `CCOc1cc(CN2CCC3(CC2)CN(c2ccc(C(=O)O)c(C)c2)C(=O)O3)cc(OCC)c1-c1ccc(F)cc1` [Example 3-8, 4-{8-[(2,6-Diethoxy-4′-fluorobiphenyl-4-yl)methyl]-2-oxo-1-oxa-3,8-diazaspiro[4.5]dec-3-yl}-2-methylbenzoic acid, TFA salt] as the molecule, how does the pIC50 read?
Answer: 8.85

Question: `CCOc1cc(CN2CCC3(CC2)CN(c2ccc(C(=O)O)cc2F)C(=O)O3)c(-c2ccc(F)c(F)c2F)cc1C` [Example 4-21, 4-{8-[(4-Ethoxy-2′,3′,4′-trifluoro-5-methylbiphenyl-2-yl)methyl]-2-oxo-1-oxa-3,8-diazaspiro[4.5]dec-3-yl}-3-fluorobenzoic acid, TFA salt] was tested. Which pIC50 did it give?
Answer: 9.40

Question: With `COc1ccc(-c2nn(-c3ccccc3)cc2CN2CCCC3(CC2)CN(c2ccc(C(=O)O)cc2)C(=O)O3)cc1` (centres unmarked) [Example 2-15, 4-(8-{[3-(4-Methoxyphenyl)-1-phenyl-1H-pyrazol-4-yl]methyl}-2-oxo-1-oxa-3,8-diazaspiro[4.6]undec-3-yl)benzoic acid, TFA salt] as the molecule, how does the pIC50 read?
Answer: 7.23

Question: How did the pIC50 turn out when `CC(C)(C)c1nn(-c2ccc(F)cc2)cc1CN1CCC2(CC1)CN(c1ccc(C(=O)O)cc1)C(=O)O2` [Example 1-35, 4-(8-{[3-tert-Butyl-1-(4-fluorophenyl)-1H-pyrazol-4-yl]methyl}-2-oxo-1-oxa-3,8-diazaspiro[4.5]dec-3-yl)benzoic acid, TFA salt] was run?
Answer: 7.44

Question: With `CCOc1cc(CN2CCC3(CC2)CN(c2cc(C(=O)O)ccn2)C(=O)O3)cc(OCC)c1-c1ccc(F)cc1` [Example 3-17, 2-{8-[(2,6-Diethoxy-4′-fluorobiphenyl-4-yl)methyl]-2-oxo-1-oxa-3,8-diazaspiro[4.5]dec-3-yl}pyridine-4-carboxylic acid, TFA salt] as the molecule, how does the pIC50 read?
Answer: 8.65

Question: With `Cc1nc2ccccn2c1CN1CCC2(CC1)CN(c1ccc(C(=O)O)cc1)C(=O)O2` [Example 6-38, 4-{8-[(2-Methylimidazo[1,2-a]pyridin-3-yl)methyl]-2-oxo-1-oxa-3,8-diazaspiro[4.5]dec-3-yl}benzoic acid, TFA salt] as the molecule, how does the pIC50 read?
Answer: 5.99

Question: With `COc1ccc(-c2nn(C(C)(C)C)cc2CN2CCC3(CC2)CN(c2ccc(C(=O)O)cc2)C(=O)O3)cc1` [Example 1-10, 4-(8-{[1-tert-Butyl-3-(4-methoxyphenyl)-1H-pyrazol-4-yl]methyl}-2-oxo-1-oxa-3,8-diazaspiro[4.5]dec-3-yl)benzoic acid, TFA salt] as the molecule, how does the pIC50 read?
Answer: 8.54

Question: With `CCOc1cc(CN2CCC3(CC2)CN(c2ccc(-c4nn[nH]n4)cc2OC)C(=O)O3)cc(OCC)c1-c1ccc(F)cc1` [Example 3-7, 8-[(2,6-Diethoxy-4′-fluorobiphenyl-4-yl)methyl]-3-[2-methoxy-4-(2H-tetrazol-5-yl)phenyl]-1-oxa-3,8-diazaspiro[4.5]decan-2-one, TFA salt] as the molecule, how does the pIC50 read?
Answer: 8.15

Question: With `CCOc1cc(CN2CCC3(CC2)CN(c2ccc(C(=O)O)cc2)C(=O)O3)c(-c2ccc(C(F)(F)F)nc2)cc1C` [Example 4-20, 4-(8-{5-Ethoxy-4-methyl-2-[6-(trifluoromethyl)pyridin-3-yl]benzyl}-2-oxo-1-oxa-3,8-diazaspiro[4.5]dec-3-yl)benzoic acid, TFA salt] as the molecule, how does the pIC50 read?
Answer: 9.20

Question: How did the pIC50 turn out when `O=C(O)c1ccc(N2CC3(CCN(Cc4cn(C5CCCCC5)nc4-c4cc(F)c(F)cc4F)CC3)OC2=O)cc1` [Example 1-33, 4-(8-{[1-Cyclohexyl-3-(2,4,5-trifluorophenyl)-1H-pyrazol-4-yl]methyl}-2-oxo-1-oxa-3,8-diazaspiro[4.5]dec-3-yl)benzoic acid, TFA salt] was run?
Answer: 8.89

Question: `CCOc1cc(C)nc2c(OCC)cc(CN3CCC4(CC3)CN(c3ccc(C(=O)O)cc3)C(=O)O4)cc12` [Example 5-4, 4-{8-[(4,8-Diethoxy-2-methylquinolin-6-yl)methyl]-2-oxo-1-oxa-3,8-diazaspiro[4.5]dec-3-yl}benzoic acid, TFA salt] was tested. Which pIC50 did it give?
Answer: 7.19

Question: `CCCn1cc(CN2CCC3(CC2)CN(c2ccc(C(=O)O)cc2)C(=O)O3)c2ccc(OC)cc21` [Example 6-20, 4-{8-[(6-Methoxy-1-propyl-1H-indol-3-yl)methyl]-2-oxo-1-oxa-3,8-diazaspiro[4.5]dec-3-yl}benzoic acid, TFA salt] was tested. Which pIC50 did it give?
Answer: 8.97

Question: How did the pIC50 turn out when `CC(C)(C)n1cc(CN2CCC3(CC2)CN(c2ccc(C(=O)O)cc2)C(=O)O3)c(-c2ccc(F)cc2F)n1` [Example 1-30, 4-(8-{[1-tert-Butyl-3-(2,4-difluorophenyl)-1H-pyrazol-4-yl]methyl}-2-oxo-1-oxa-3,8-diazaspiro[4.5]dec-3-yl)benzoic acid, TFA salt] was run?
Answer: 8.71

Question: How did the pIC50 turn out when `O=C(O)c1ccc(N2CC3(CCN(Cc4cn(-c5cccc6c5OCCO6)nc4-c4ccc(F)c(F)c4F)CC3)OC2=O)cc1` [Example 1-21, 4-(8-{[1-(2,3-Dihydro-1,4-benzodioxin-5-yl)-3-(2,3,4-trifluorophenyl)-1H-pyrazol-4-yl]methyl}-2-oxo-1-oxa-3,8-diazaspiro[4.5]dec-3-yl)benzoic acid, TFA salt] was run?
Answer: 8.49

Question: `O=C(O)c1ccc(N2CC3(CCN(Cc4c(-c5cc(F)c(F)cc5F)nn(-c5ccccc5)c4Cl)CC3)OC2=O)cc1` [Example 1-39, 4-(8-{[5-Chloro-1-phenyl-3-(2,4,5-trifluorophenyl)-1H-pyrazol-4-yl]methyl}-2-oxo-1-oxa-3,8-diazaspiro[4.5]dec-3-yl)benzoic acid, TFA salt] was tested. Which pIC50 did it give?
Answer: 7.35

Question: With `CC(C)n1cc(CN2CCC3(CC2)CN(c2ccc(C(=O)O)cc2)C(=O)O3)c2cc(-c3ccc(F)c(F)c3F)ccc21` [Example 6-24, TFA salt] as the molecule, how does the pIC50 read?
Answer: 9.47

Question: How did the pIC50 turn out when `CC(C)n1cc(CN2CCC3(CC2)CN(c2ccc(C(=O)O)cc2)C(=O)O3)c2c(OCc3ccccc3)cccc21` [Example 6-18, 4-(8-{[4-(Benzyloxy)-1-(propan-2-yl)-1H-indol-3-yl]methyl}-2-oxo-1-oxa-3,8-diazaspiro[4.5]dec-3-yl)benzoic acid, TFA salt] was run?
Answer: 9.65
